Experimental data: patent US6518243B1, “Desleucyl glycopeptide antibiotics and methods of making same” (Trustees of Princeton University, priority 1999, dated 2003)

Assays:
Type in all cases: cell-based
E. faecium ATCC 49624 = assay: MIC determination in BHI media, OD600; settings: BHI + 0.1% casamino acids, 18 hours at 37° C., ≧90% OD600 inhibition
Procedure, shortened: (§1)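 Inoculum ~5×10^5 CFU/ml from log-phase culture; compounds in DMSO, serial dilution; 18 h, 37° C; plate read for growth, MIC called per concentration.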

S. Aureus ATCC 33591 = assay: MIC determination in BHI media, OD600; settings: BHI + 0.1% casamino acids, 18 hours at 37° C., ≧90% OD600 inhibition
Procedure, shortened: as §1

E. faecalis ATCC 29212 = assay: MIC determination in BHI media, OD600; settings: BHI + 0.1% casamino acids, 18 hours at 37° C., ≧90% OD600 inhibition
Procedure, shortened: as §1

S aureus ATCC 29213 = assay: MIC determination in BHI media, OD600; settings: BHI + 0.1% casamino acids, 18 hours at 37° C., ≧90% OD600 inhibition
Procedure, shortened: as §1

S. aureus (ATCC 29213) = assay: Zone of inhibition screen, 96 well agar array format; design: scale not given here; settings: zone of inhibition relative to 1 mg/ml stock solution of p-chlorobiphenylvancomycin
Procedure, shortened: (§2)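 Agar-array screen, 96-well; single compounds vs. strain panel (panel also incl. E. faecium ATCC 49624); antibacterial activity scored.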

E. faecalis (CL 4877) = assay: as above; design: scale not given here; settings: zone of inhibition relative to 1 mg/ml stock solution of p-chlorobiphenylvancomycin
Procedure, shortened: as §2

MIC E. faecium ATCC 49624 (E. faecium ATCC 49624) | MIC S. aureus ATCC 33591 (S. Aureus ATCC 33591) | MIC E. faecalis ATCC 29212 (E. faecalis ATCC 29212) | MIC S. aureus ATCC 29213 (S aureus ATCC 29213) | SMILES | zone score, S. aureus ATCC 29213 (S. aureus (ATCC 29213)) | zone score, E. faecalis CL 4877 (E. faecalis (CL 4877))
0.062 µg/mL | 0.39 µg/mL | 0.39 µg/mL | 0.39 µg/mL | CCOC(=O)NC(CC(N)=O)C(=O)NC1C(=O)NC(CC(N)=O)C(=O)NC2C(=O)NC3C(=O)NC(C(=O)NC(C(=O)O)c4cc(O)cc(O)c4-c4cc3ccc4O)C(O)c3ccc(c(Cl)c3)Oc3cc2cc(c3OC2OC(CO)C(O)C(O)C2OC2CC(C)(NCc3ccc(-c4ccc(Cl)cc4)cc3)C(O)C(C)O2)Oc2ccc(cc2Cl)C1O (stereo not drawn) [Compound 188] | 2 | 2
0.12 µg/mL | 0.78 µg/mL | 0.78 µg/mL | 0.78 µg/mL | CNC(CC(C)C)C(=O)NC1C(=O)NC(CC(N)=O)C(=O)NC2C(=O)NC3C(=O)NC(C(=O)NC(C(=O)O)c4cc(O)cc(O)c4-c4cc3ccc4O)C(O)c3ccc(c(Cl)c3)Oc3cc2cc(c3OC2OC(CI)C(O)C(O)C2OC2CC(C)(NCc3ccc(-c4ccc(Cl)cc4)cc3)C(O)C(C)O2)Oc2ccc(cc2Cl)C1O (stereo not drawn) [Compound 520] |  | 
0.12 µg/mL | 0.25 µg/mL | 0.78 µg/mL | 0.25 µg/mL | CCC(C)C(NC)C(=O)NC1C(=O)NC(CC(N)=O)C(=O)NC2C(=O)NC3C(=O)NC(C(=O)NC(C(=O)O)c4cc(O)cc(O)c4-c4cc3ccc4O)C(O)c3ccc(c(Cl)c3)Oc3cc2cc(c3OC2OC(CO)C(O)C(O)C2OC2CC(C)(NCc3ccc(-c4ccc(Cl)cc4)cc3)C(O)C(C)O2)Oc2ccc(cc2Cl)C1O (stereo not drawn) [Compound 330] |  | 
0.12 µg/mL | 0.25 µg/mL | 0.25 µg/mL | 0.25 µg/mL | CC1OC(OC2C(Oc3c4cc5cc3Oc3ccc(cc3Cl)C(O)C3NC(=O)C(NC(=O)C5NC(=O)C(CC(N)=O)NC(=O)C(NC(=O)C(N)CCCNC(N)=O)C(O)c5ccc(c(Cl)c5)O4)c4ccc(O)c(c4)-c4c(O)cc(O)cc4C(C(=O)O)NC3=O)OC(CO)C(O)C2O)CC(C)(NCc2ccc(-c3ccc(Cl)cc3)cc2)C1O (stereo not drawn) [Compound 62] |  | 

More lines, now with the values behind:

SMILES | MIC E. faecium ATCC 49624 (E. faecium ATCC 49624) | MIC S. aureus ATCC 33591 (S. Aureus ATCC 33591) | MIC E. faecalis ATCC 29212 (E. faecalis ATCC 29212) | MIC S. aureus ATCC 29213 (S aureus ATCC 29213) | zone score, S. aureus ATCC 29213 (S. aureus (ATCC 29213)) | zone score, E. faecalis CL 4877 (E. faecalis (CL 4877))
CSCC[C@@H](N)C(=O)N[C@H]1C(=O)N[C@@H](CC(N)=O)C(=O)N[C@H]2C(=O)N[C@H]3C(=O)N[C@H](C(=O)N[C@@H](C(=O)O)c4cc(O)cc(O)c4-c4cc3ccc4O)[C@H](O)c3ccc(c(Cl)c3)Oc3cc2cc(c3O[C@@H]2O[C@H](CO)[C@@H](O)[C@H](O)[C@H]2O[C@@H]2C[C@@](C)(NCc3ccc(-c4ccc(Cl)cc4)cc3)[C@@H](O)[C@@H](C)O2)Oc2ccc(cc2Cl)[C@H]1O [Compound 15] | 0.12 µg/mL | 0.12 µg/mL | 0.25 µg/mL | 0.25 µg/mL |  | 2
C[C@H]1O[C@H](O[C@H]2[C@H](Oc3c4cc5cc3Oc3ccc(cc3Cl)[C@@H](O)[C@@H](NC(=O)[C@@H](N)Cc3ccccc3)C(=O)N[C@@H](CC(N)=O)C(=O)N[C@H]5C(=O)N[C@H]3C(=O)N[C@H](C(=O)N[C@@H](C(=O)O)c5cc(O)cc(O)c5-c5cc3ccc5O)[C@H](O)c3ccc(c(Cl)c3)O4)O[C@H](CO)[C@@H](O)[C@@H]2O)C[C@@](C)(NCc2ccc(-c3ccc(Cl)cc3)cc2)[C@H]1O [Compound 7] | 0.12 µg/mL | 0.39 µg/mL | 0.78 µg/mL | 0.39 µg/mL | 2 | 2
C[C@H]1O[C@H](O[C@H]2[C@H](Oc3c4cc5cc3Oc3ccc(cc3Cl)[C@@H](O)[C@@H](NC(=O)[C@H](N)Cc3ccccc3)C(=O)N[C@@H](CC(N)=O)C(=O)N[C@H]5C(=O)N[C@H]3C(=O)N[C@H](C(=O)N[C@@H](C(=O)O)c5cc(O)cc(O)c5-c5cc3ccc5O)[C@H](O)c3ccc(c(Cl)c3)O4)O[C@H](CO)[C@@H](O)[C@@H]2O)C[C@@](C)(NCc2ccc(-c3ccc(Cl)cc3)cc2)[C@H]1O [Compound 16] | 0.12 µg/mL | 0.25 µg/mL | 0.25 µg/mL | 0.25 µg/mL |  | 
